The values that follow come from publication PMC10291551, “Characterization of a Potent and Orally Bioavailable Lys-Covalent Inhibitor of Apoptosis Protein (IAP) Antagonist” (Journal of Medicinal Chemistry, 2023).

On the set-up of series [1]: method as in PMID 31550155. Conditions: cited from earlier work.
In another series the target is T1, cIAP1-BIR3 (Homo sapiens, UniProt Q13490).
T1 construct: from the BIR3 domains of XIAP, cIAP1, and cIAP2
Nature of the series: DELFIA displacement assay (biotinylated AVPI peptide). Format: binding.

The nature of another series: in vivo. The note with it: Balb/c, mouse, plasma, 30 mg/kg.
Series [2] in a line: Solubility in dosing formulation. Conditions: dosing formulation of 80% PBS, 10% ethanol, 10% Tween80, aqueous with cosolvent or surfactant or cyclodextrin. The format is physicochemical.
The conditions of series [3]: pH = 7.5, T = 25 °C; cited from earlier work.

Values after ≈ are worked out from the molar mass of the structure shown.

For `CN[C@@H](C)C(=O)N[C@H](C(=O)N1CCC[C@H]1c1nc(C(=O)c2ccc(F)cc2)cs1)C1CCCCC1` [LCL161], in series [1], the “plasma stability t1/2” value is on record as greater than 2 h.
As for `CN[C@@H](C)C(=O)N[C@H](C(=O)N1CCC[C@H]1C(=O)N[C@@H]1CCc2c(O)cccc21)C1CCCCC1` [compound 1, (S)-1-((S)-2-cyclohexyl-2-((S)-2-(methylamino)propanamido)acetyl)-N-((R)-4-hydroxy-2,3-dihydro-1H-inden-1-yl)pyrrolidine-2-carboxamide], the IC50 on cIAP1-BIR3 (after 6 h preincubation (bottom values)) is 19.3 nM; at cIAP1-BIR3 (without preincubation (top values)) it was 16.6 ± 1.7 nM.
Consider `CN[C@@H](C)C(=O)N[C@H](C(=O)N1CCC[C@H]1C(=O)N[C@@H]1CCc2c(OS(=O)(=O)F)cccc21)C1CCCCC1` [142D6, (R)-1-((S)-1-((S)-2-cyclohexyl-2-((S)-2-(methylamino)propanamido)acetyl)pyrrolidine-2-carboxamido)-2,3-dihydro-1H-inden-4-yl sulfurofluoridate], for which the bioavailability at 24 h in “in vivo” (ip) was found to be 35%; in the series “in vivo” (po), 36%. This compound also showed a solubility in series [2] of 7500 µg/mL (≈ 13.6 mM). In addition, the “solubility in aqueous buffer” value in series [3] is reported as “up to 2 mM”.
